Source: patent US20220220099A1, “BENZAMIDE COMPOUND, AND HERBICIDE” (Nippon Soda Co., Ltd., priority 2019, published 2022)

System: not given
Assay: not given
Settings: not given

melting point	SMILES
220 to 223 °C	Cn1nnnc1NC(=O)c1ccc(C(F)(F)F)c2c1C(F)CCS2(=O)=O (stereo not drawn) [b-10]
117 to 120 °C	CC1CCc2c(C(=O)Nc3nnnn3C)ccc(C(F)(F)F)c2/S1=N/C#N (stereo not drawn) [b-21]
202 to 205 °C	Cn1nnnc1NC(=O)c1ccc(C(F)(F)F)c2c1C(O)CS2(=O)=O (stereo not drawn) [b-3]
110 to 112 °C	Cn1nnnc1NC(=O)c1ccc(C(F)(F)F)c2c1CCCS2(=O)=Nc1ccccc1 (stereo not drawn) [b-23]
182 to 183 °C	Cc1nnc(NC(=O)c2ccc(C(F)(F)F)c3c2CCC(C)S3)o1 (stereo not drawn) [b-14]
132 to 135 °C	Cn1nnnc1NC(=O)c1ccc(C(F)(F)F)c2c1C(F)CCS2 (stereo not drawn) [b-11]

The next lines start with the molecule.

SMILES	melting point
Cn1nnnc1NC(=O)c1ccc(C(F)(F)F)c2c1C(Br)CS2(=O)=O (stereo not drawn) [b-4]	209 to 211 °C
COC1CSc2c(C(F)(F)F)ccc(C(=O)Nc3nnnn3C)c2C1 (stereo not drawn) [b-9]	168 to 170 °C
COCC1Cc2c(C(=O)Nc3nnnn3C)ccc(C(F)(F)F)c2S1(=O)=O (stereo not drawn) [b-2]	215 to 217 °C
COC1CS(=O)(=O)c2c(C(F)(F)F)ccc(C(=O)Nc3nnc(C)o3)c21 (stereo not drawn) [b-5]	206 to 207 °C
Cn1nnnc1NC(=O)c1ccc(C(F)(F)F)c2c1CCCS2 [a-37, N-(1-Methyl-1H-tetrazol-5-yl)-8-(trifluoromethyl)thiochromane-5-carboxamide]	166 to 167 °C
CCOC1CS(=O)(=O)c2c(C(F)(F)F)ccc(C(=O)Nc3nnnn3C)c21 (stereo not drawn) [b-1]	209 to 211 °C
COC1Cc2c(C(=O)Nc3nnnn3C)ccc(C(F)(F)F)c2S(=O)(=O)C1 (stereo not drawn) [b-8]	226 to 228 °C
CC1CCc2c(C(=O)Nc3nnnn3C)ccc(C(F)(F)F)c2S1(=O)=O (stereo not drawn) [b-12]	270 to 271 °C
Cn1nnnc1NC(=O)c1ccc(C(F)(F)F)c2c1CCCS2(=O)=NC#N (stereo not drawn) [b-19]	151 to 153 °C
COc1ccc(N=S2(=O)CCCc3c(C(=O)Nc4nnnn4C)ccc(C(F)(F)F)c32)cc1 (stereo not drawn) [b-22]	123 to 124 °C
Cn1nnnc1NC(=O)c1ccc(C(F)(F)F)c2c1CCCS2(=O)=Nc1ccc(Cl)cc1 (stereo not drawn) [b-24]	113 to 114 °C

System: Apera spica-venti
Assay: Test Example 2: spraying treatment on stems and leaves, herbicidal rate
Assay type: in vivo
Settings: spray amount of 16 g, three weeks later
Description: Emulsion for testing was prepared according to the preparation method described in Test Example 1.
A 150 cm^2 pot was filled with soil, and seeds of Avena sativa, Lolium multiflorum and Apera spica-venti were sowed on the surface layer, and after the soil was covered lightly, the Avena sativa, Lolium multiflorum and Apera spica-venti were grown in a greenhouse. At the point in time when Avena sativa was grown to a plant height of 16 to 20 cm, Lolium multiflorum was grown to a plant height of 10 to 14 cm, and Apera spica-venti was grown to a plant height of 2 to 4 cm, the emulsion for testing was diluted in such a way as to have a predetermined amount of an active ingredient and was sprayed on the leaves and stems in a spray amount of water of 250 L per hectare with a small-sized atomizer.
Three weeks later, the weight of a living weed above the ground was measured for each weed in the nontreated zone and in the treated zone to calculate a herbicidal rate by the following calculation formula.
Herbicidal rate (%)=(weight of living weed above ground in nontreated zone−weight of living weed above ground in treated zone)/(weight of living weed above ground in nontreated zone)×100 […]

SMILES	herbicidal activity (Apera spica-venti, follows Table 10)
O=C(Nc1nnnn1CC(F)(F)F)c1ccc(C(F)(F)F)c2c1CCCS2 [c-6]	≥ 80%
